{"source": "patent US11759455B2", "about": "“Substituted 1H-imidazo[4,5-b]pyridin-2(3H)-ones and their use as GLUN2B receptor modulators” (JANSSEN PHARMACEUTICA NV, priority 2016, dated 2023)", "data": [{"biological_target": "T1, human GluN1/GluN2B NMDA receptors (Homo sapiens, UniProt Q13224)", "T1 construct": "expressed in transfected cells", "T1 sequence (Q13224 27-1484, other chains not shown)": "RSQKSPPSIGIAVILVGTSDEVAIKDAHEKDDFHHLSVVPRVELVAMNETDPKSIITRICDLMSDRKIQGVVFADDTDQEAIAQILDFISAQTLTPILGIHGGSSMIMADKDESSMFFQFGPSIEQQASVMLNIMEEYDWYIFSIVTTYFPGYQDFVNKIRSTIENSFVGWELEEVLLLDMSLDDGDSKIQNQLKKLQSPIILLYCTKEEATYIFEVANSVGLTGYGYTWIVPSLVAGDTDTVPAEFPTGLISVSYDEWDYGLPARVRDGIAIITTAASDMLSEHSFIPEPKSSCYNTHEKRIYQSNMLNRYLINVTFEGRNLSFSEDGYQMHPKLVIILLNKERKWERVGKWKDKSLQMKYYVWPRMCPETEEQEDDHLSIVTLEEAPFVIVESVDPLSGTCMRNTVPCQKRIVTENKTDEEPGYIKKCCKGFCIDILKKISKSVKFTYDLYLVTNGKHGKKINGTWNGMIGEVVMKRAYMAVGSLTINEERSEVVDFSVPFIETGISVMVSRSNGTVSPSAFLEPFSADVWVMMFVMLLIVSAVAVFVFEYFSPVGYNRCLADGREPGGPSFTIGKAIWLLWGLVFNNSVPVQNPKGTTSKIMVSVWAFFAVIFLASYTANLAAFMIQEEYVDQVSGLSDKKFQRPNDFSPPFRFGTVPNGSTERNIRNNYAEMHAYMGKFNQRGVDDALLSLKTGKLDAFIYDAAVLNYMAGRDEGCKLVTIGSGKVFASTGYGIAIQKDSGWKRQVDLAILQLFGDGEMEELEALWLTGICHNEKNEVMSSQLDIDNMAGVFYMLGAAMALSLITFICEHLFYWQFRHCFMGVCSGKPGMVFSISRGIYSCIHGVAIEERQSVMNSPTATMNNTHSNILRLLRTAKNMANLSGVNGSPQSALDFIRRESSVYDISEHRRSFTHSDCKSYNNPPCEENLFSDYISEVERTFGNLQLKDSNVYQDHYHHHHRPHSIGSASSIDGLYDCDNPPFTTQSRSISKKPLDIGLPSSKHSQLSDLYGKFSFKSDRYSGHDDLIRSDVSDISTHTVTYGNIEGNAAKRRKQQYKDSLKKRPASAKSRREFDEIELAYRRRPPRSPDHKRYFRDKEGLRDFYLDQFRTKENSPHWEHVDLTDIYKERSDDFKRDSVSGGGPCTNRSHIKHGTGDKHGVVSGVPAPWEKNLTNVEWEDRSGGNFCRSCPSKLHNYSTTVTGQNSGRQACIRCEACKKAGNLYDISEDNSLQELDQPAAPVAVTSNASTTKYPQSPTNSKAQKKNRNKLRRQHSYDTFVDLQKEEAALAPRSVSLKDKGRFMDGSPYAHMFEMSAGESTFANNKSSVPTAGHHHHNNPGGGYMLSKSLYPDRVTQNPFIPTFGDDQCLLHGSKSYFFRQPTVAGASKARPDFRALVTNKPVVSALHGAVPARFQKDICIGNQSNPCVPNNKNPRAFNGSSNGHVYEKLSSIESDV", "assay": "Cell-based calcium flux (FLIPR) assay on cloned human NR1/NR2B ion channels expressed in mammalian cells (standard and HTS buffer variants);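 note: stable Tet-On inducible cell line, Ca2+ influx triggered by glutamate at about EC40 plus 10 µM glycine, fluorescent dye read-out over 5 min, normalized to control wells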", "details": "standard assay buffer (0.5 mM MgCl2 dye loading; 137 mM NaCl, 4 mM KCl assay buffer), human GluN1/GluN2B cells, read-out: NR2B IC50 (μM) standard assay", "units": {"IC50": "µM"}, "values": [{"compound": "Cc1cncc(Cn2c(=O)[nH]c3ncc(-c4ccc(F)c(C(F)(F)F)c4)cc32)c1", "note": "[Example 309, 6-[4-Fluoro-3-(trifluoromethyl)phenyl]-1-[(5-methyl-3-pyridyl)methyl]-3H-imidazo[4,5-b]pyridin-2-one]", "IC50": 0.316}, {"compound": "Cc1cncc(Cn2c(=O)[nH]c3ncc(-c4cccc(F)c4F)cc32)c1", "note": "[Example 310, 6-(2,3-Difluorophenyl)-1-[(5-methyl-3-pyridyl)methyl]-3H-imidazo[4,5-b]pyridin-2-one]", "IC50": 0.088}, {"compound": "Cc1cncc(Cn2c(=O)[nH]c3ncc(-c4cc(F)cc(F)c4)cc32)c1", "note": "[Example 311, 6-(3,5-Difluorophenyl)-1-[(5-methyl-3-pyridyl)methyl]-3H-imidazo[4,5-b]pyridin-2-one]", "IC50": 0.028}, {"compound": "Cc1ccncc1Cn1c(=O)[nH]c2ncc(-c3cc(F)c(F)c(F)c3)cc21", "note": "[Example 312, 1-[(4-Methyl-3-pyridyl)methyl]-6-(3,4,5-trifluorophenyl)-3H-imidazo[4,5-b]pyridin-2-one]", "IC50": 0.002}, {"compound": "Cc1ccncc1Cn1c(=O)[nH]c2ncc(-c3cccc(C(F)(F)F)c3)cc21", "note": "[Example 313, 1-[(4-Methyl-3-pyridyl)methyl]-6-[3-b]pyridin-2-one]", "IC50": 0.018}, {"compound": "Cc1ccncc1Cn1c(=O)[nH]c2ncc(-c3ccc(F)c(C(F)(F)F)c3)cc21", "note": "[Example 314, 6-[4-Fluoro-3-(trifluoromethyl)phenyl]-1-[(4-methyl-3-pyridyl)methyl]-3H-imidazo[4,5-b]pyridin-2-one]", "IC50": 0.049}, {"compound": "Cc1cccnc1Cn1c(=O)[nH]c2ncc(-c3cccc(C(F)(F)F)c3)cc21", "note": "[Example 315, 1-[(3-Methyl-2-pyridyl)methyl]-6-[3-(trifluoromethyl)phenyl]-3H-imidazo[4,5-b]pyridin-2-one]", "IC50": "> 10"}, {"compound": "Cc1cc(-c2cnc3[nH]c(=O)n(Cc4ncccc4C)c3c2)ccc1F", "note": "[Example 316, 6-(4-Fluoro-3-methyl-phenyl)-1-[(3-methyl-2-pyridyl)methyl]-3H-imidazo[4,5-b]pyridin-2-one]", "IC50": 0.114}]}, {"biological_target": "T1, human GluN1/GluN2B NMDA receptors", "assay": "Cell-based calcium flux (FLIPR) assay on cloned human NR1/NR2B ion channels expressed in mammalian cells (standard and HTS buffer variants)", "details": "standard assay buffer (0.5 mM MgCl2 in dye loading buffer; 137 mM NaCl, 4 mM KCl in assay buffer), human GluN1/GluN2B, read-out: NR2B IC50 (μM) standard assay", "units": {"IC50": "µM"}, "values": [{"compound": "Cc1cccnc1Cn1c(=O)[nH]c2ncc(-c3ccc(F)c(C)c3F)cc21", "note": "[Example 317, 6-(2,4-Difluoro-3-methyl-phenyl)-1-[(3-methyl-2-pyridyl)methyl]-3H-imidazo[4,5-b]pyridin-2-one]", "IC50": 0.046}, {"compound": "Cc1cccnc1Cn1c(=O)[nH]c2ncc(-c3cc(F)cc(F)c3)cc21", "note": "[Example 318, 6-(3,5-Difluorophenyl)-1-[(3-methyl-2-pyridyl)methyl]-3H-imidazo[4,5-b]pyridin-2-one]", "IC50": "> 10"}, {"compound": "Cc1cccnc1Cn1c(=O)[nH]c2ncc(-c3cccc(F)c3F)cc21", "note": "[Example 319, 6-(2,3-Difluorophenyl)-1-[(3-methyl-2-pyridyl)methyl]-3H-imidazo[4,5-b]pyridin-2-one]", "IC50": "> 10"}, {"compound": "Cc1cc(F)ccc1-c1cnc2[nH]c(=O)n(CC(=O)N3CCC3)c2c1", "note": "[Example 320, 1-[2-(Azetidin-1-yl)-2-oxo-ethyl]-6-(4-fluoro-2-methyl-phenyl)-3H-imidazo[4,5-b]pyridin-2-one]", "IC50": 0.075}, {"compound": "Cc1cc(-c2cnc3[nH]c(=O)n(CC(=O)N(C)C)c3c2)sc1Cl", "note": "[Example 321, 2-[6-(5-Chloro-4-methyl-2-thienyl)-2-oxo-3H-imidazo[4,5-b]pyridin-1-yl]-N,N-dimethyl-acetamide]", "IC50": 0.014}, {"compound": "Cc1cc(-c2cnc3c(c2)n(CC(=O)N(C)C)c(=O)n3C)sc1Cl", "note": "[Example 322, 2-[6-(5-Chloro-4-methyl-2-thienyl)-3-methyl-2-oxo-imidazo[4,5-b]pyridin-1-yl]-N,N-dimethyl-acetamide]", "IC50": 0.023}, {"compound": "O=C(Cn1c(=O)[nH]c2ncc(-c3ccc(C(F)(F)F)s3)cc21)N1CCC1", "note": "[Example 323, 1-[2-(azetidin-1-yl)-2-oxo-ethyl]-6-[5-(trifluoromethyl)-2-thienyl]-3H-imidazo[4,5-b]pyridin-2-one]", "IC50": 0.041}, {"compound": "Cc1cc(-c2cnc3[nH]c(=O)n(CC(=O)N4CCC4)c3c2)sc1Cl", "note": "[Example 324, 1-[2-(Azetidin-1-yl)-2-oxo-ethyl]-6-(5-chloro-4-methyl-2-thienyl)-3H-imidazo[4,5-b]pyridin-2-one]", "IC50": 0.015}]}]}
